Activity calls are given as the source filed them. No cut-off for these calls is given here.
Experiments:
Mus musculus [1] = assay: In vivo activity tested against C3H mice bearing mammary adenocarcinoma -17/ADR tumor measured as log Kill value was based on tumors that grew at 301 mg/kg (po); type: functional, organism-based; parameters: dose 301 mg/kg
Mus musculus [2] = assay: In vivo activity tested against C3H mice bearing mammary adenocarcinoma -17/ADR tumor measured as body weight loss at 301 mg/kg (po); type: functional
Mus musculus [3] = assay: In vivo activity tested against C3H mice bearing mammary adenocarcinoma -17/ADR tumor measured as activity rating at 301 mg/kg (po); type: functional
Mus musculus [4] = assay: In vivo activity tested against C3H mice bearing mammary adenocarcinoma -17/ADR tumor measured as % treated/control calculated at 301 mg/kg (po); type: functional
Mus musculus [5] = assay: In vivo activity tested against C3H mice bearing mammary adenocarcinoma -17/ADR tumor measured as log Kill value was based on tumors that grew at 1250 mg/kg (po); type: functional, organism-based; parameters: dose 1250 mg/kg
Mus musculus [6] = assay: In vivo activity tested against C3H mice bearing mammary adenocarcinoma -17/ADR tumor measured as % treated/control calculated at 750 mg/kg (po); type: functional
Mus musculus [7] = assay: In vivo activity tested against C3H mice bearing mammary adenocarcinoma -17/ADR tumor measured as % treated/control calculated at 1250 mg/kg (po); type: functional
Mus musculus [8] = assay: In vivo activity tested against C3H mice bearing mammary adenocarcinoma -17/ADR tumor measured as body weight loss at 750 mg/kg (po); type: functional
Mus musculus [9] = assay: In vivo activity tested against C3H mice bearing mammary adenocarcinoma -17/ADR tumor measured as log Kill value was based on tumors that grew at 750 mg/kg (po); type: functional, organism-based; parameters: dose 750 mg/kg
Mus musculus [10] = assay: In vivo activity tested against C3H mice bearing mammary adenocarcinoma -17/ADR tumor measured as body weight loss at 1250 mg/kg (po); type: functional
Mus musculus [11] = assay: In vivo activity against C3H mice bearing panc-03 murine tumor; Inactive; type: functional, organism-based
Mus musculus [12] = assay: In vivo antitumor activity against tumor […]; Inactive; type: functional, organism-based
Mus musculus [13] = assay: In vivo activity against iv transplanted Leukemia L1210 tumors of mice; type: functional, organism-based
Mus musculus [14] = assay: In vivo activity against transplanted Mel-B16 tumors of mice; type: functional, organism-based
Mus musculus [15] = assay: In vivo activity against transplanted Squam lung-LC12 tumors of mice; type: functional, organism-based
Mus musculus [16] = assay: In vivo activity against transplanted colon-38 tumors of mice; type: functional, organism-based
Mus musculus [17] = assay: In vivo activity against transplanted Mam-17 tumors of mice; type: functional, organism-based
Mus musculus [18] = assay: In vivo activity against transplanted Panc-03 tumors of mice; type: functional, organism-based
Mus musculus [19] = assay: In vivo activity against iv transplanted AML Leukemia 1498 tumors of mice; type: functional, organism-based
Mus musculus [20] = assay: In vivo activity against transplanted colon-51 tumors of mice; type: functional, organism-based
Mus musculus [21] = assay: In vivo activity against transplanted Mam-16/C/Adr tumors of mice; type: functional, organism-based
Mus musculus [22] = assay: In vivo activity against transplanted Mam-16/C tumors of mice; type: functional, organism-based
Mus musculus [23] = assay: In vivo activity against transplanted Panc-02 tumors of mice; type: functional, organism-based
Mus musculus [24] = assay: In vivo activity against transplanted Mam-16/C/ Taxol tumors of mice; type: functional, organism-based
Mus musculus [25] = assay: In vivo activity against transplanted colon-26 tumors of mice; type: functional, organism-based
Mus musculus [26] = assay: In vivo activity against transplanted Mam-17/Adr tumors of mice; type: functional, organism-based
Mus musculus [27] = assay: In vivo activity tested against C3H mice bearing panc-03 murine tumor measured as body weight loss at 700 mg/kg (po); type: functional
Mus musculus [28] = assay: In vivo activity tested against C3H mice bearing panc-03 murine tumor measured as log Kill value was based on tumors that grew at 700 mg/kg (po); type: functional, organism-based; parameters: dose 700 mg/kg
Mus musculus [29] = assay: In vivo activity tested against C3H mice bearing panc-03 murine tumor measured as % treated/control calculated at 700 mg/kg (po); type: functional
Mus musculus [30] = species: Mus musculus; assay: […] activity against C3H mice bearing panc-03 murine tumor; Inactive; type: functional, organism-based
Mus musculus [31] = assay: In vivo activity against iv transplanted AML Leukemia 1498 tumors of mice; Not active; type: functional, organism-based
Mus musculus [32] = assay: In vivo activity tested against C3H mice bearing panc-03 murine tumor at a dose of 330mg/kg, measured as % treated/control; type: functional
Mus musculus [33] = assay: In vivo activity tested against C3H mice bearing panc-03 murine tumor at a dose of 330mg/kg, measured as activity rating; type: functional
Mus musculus [34] = assay: In vivo activity against transplanted Mam-16/C/ Taxol tumors of mice; Not active; type: functional, organism-based

| Compound | Log kill (Mus musculus [13]) | Log kill (Mus musculus [14]) | Log kill (Mus musculus [15]) | Log kill (Mus musculus [16]) | Log kill (Mus musculus [17]) | Log kill (Mus musculus [18]) | Log kill (Mus musculus [20]) | Log kill (Mus musculus [21]) | Log kill (Mus musculus [22]) | Log kill (Mus musculus [23]) | Log kill (Mus musculus [25]) | Log kill (Mus musculus [26]) | also measured |
| --- | --- | --- | --- | --- | --- | --- | --- | --- | --- | --- | --- | --- | --- |
| C[C@@H](Oc1ccc(Oc2cnc3ccc(Cl)cc3n2)cc1)C(=O)O [R(+)XK469] | – | – | – | – | – | – | – | – | – | – | – | – | Log kill (Mus musculus [1]): 2.9; Body weight loss (Mus musculus [2]): -8%; Activity rating (Mus musculus [3]): >2.8; T/C (Mus musculus [4]): 2% |
| Cc1ccc2ncc(Oc3ccc(OC(C)C(=O)O)cc3)nc2c1 (stereo unspecified) | – | – | – | – | – | – | – | – | – | – | – | – | Log kill (Mus musculus [5]): 0.63; T/C (Mus musculus [6]): 47%; T/C (Mus musculus [7]): 21%; Body weight loss (Mus musculus [8]): 4.3%; Log kill (Mus musculus [9]): 0.38; Body weight loss (Mus musculus [10]): 7.1% |
| CC(Oc1ccc(Oc2cnc3ccc(Cl)cc3n2)cc1)C(=O)NO (stereo unspecified) | – | – | – | – | – | – | – | – | – | – | – | – | NA (Mus musculus [11]): inactive |
| CC(Oc1ccccc1Oc1cnc2ccc(Cl)cc2n1)C(=O)O (stereo unspecified) | – | – | – | – | – | – | – | – | – | – | – | – | NA (Mus musculus [12]): inactive |
| CC[C@]1(O)C[C@@H]2CN(CCc3c([nH]c4ccccc34)[C@@](C(=O)OC)(c3cc4c(cc3OC)N(C)[C@H]3[C@@](O)(C(=O)OC)[C@H](OC(C)=O)[C@]5(CC)C=CCN6CC[C@]43[C@@H]65)C2)C1 | 1.9 | < 0.7 | < 0.7 | 2.8 | < 0.7 | < 0.7 | < 0.7 | < 0.7 | 1.9 | < 0.7 | < 0.7 | < 0.7 | Log kill (Mus musculus [19]): < 0.7; Log kill (Mus musculus [24]): < 0.7 |
| CC(Oc1ccc(Oc2cnc3cc([N+](=O)[O-])ccc3n2)cc1)C(=O)O (stereo unspecified) | – | – | – | – | – | – | – | – | – | – | – | – | Body weight loss (Mus musculus [27]): -1.4%; Log kill (Mus musculus [28]): 0.42; T/C (Mus musculus [29]): 41% |
| CC(Oc1ccc(Oc2cnc3ccc(N)cc3n2)cc1)C(=O)O (stereo unspecified) | – | – | – | – | – | – | – | – | – | – | – | – | NA (Mus musculus [30]): inactive |
| CC(Oc1ccc(Sc2cnc3ccc(Cl)cc3n2)cc1)C(=O)O (stereo unspecified) | – | – | – | – | – | – | – | – | – | – | – | – | NA (Mus musculus [12]): inactive |
| COc1cc([C@@H]2c3cc4c(cc3[C@@H](O[C@@H]3O[C@@H]5CO[C@@H](C)O[C@H]5[C@H](O)[C@H]3O)[C@H]3COC(=O)[C@H]23)OCO4)cc(OC)c1O | > 5 | < 0.7 | > 2.8 | 1.9 | 1.9 | 1.9 | 0.7 | < 0.7 | 2.8 | < 0.7 | < 0.7 | < 0.7 | NA (Mus musculus [31]): inactive; Log kill (Mus musculus [24]): 1.2 |
| CC(Oc1cccc(Oc2cnc3ccc(Cl)cc3n2)c1)C(=O)O (stereo unspecified) | – | – | – | – | – | – | – | – | – | – | – | – | T/C (Mus musculus [32]): 100%; Activity rating (Mus musculus [33]): <0.7 |
| CISPLATIN | 2.9 | 1.9 | > 2.8 | 0.7 | 2.8 | 1.9 | 1.9 | 1.2 | 1.2 | < 0.7 | 1.9 | > 2.8 | NA (Mus musculus [31]): inactive; NA (Mus musculus [34]): inactive |
| O=NN(CCCl)C(=O)NCCCl | > 5 | > 2.8 | 1.2 | < 0.7 | < 0.7 | < 0.7 | 1.9 | 0.7 | < 0.7 | < 0.7 | > 2.8 | < 0.7 | NA (Mus musculus [31]): inactive; NA (Mus musculus [34]): inactive |
| CC(Oc1cnc2ccc(Cl)cc2n1)C(=O)O (stereo unspecified) | – | – | – | – | – | – | – | – | – | – | – | – | NA (Mus musculus [12]): inactive |

Source: ChEMBL document CHEMBL1134487, “Design, synthesis, and biological evaluation of analogues of the antitumor agent, 2-(4-[(7-chloro-2-quinoxalinyl)oxy]phenoxy)propionic acid (XK469)” (2001)
